According to US9968572B2, “Clonidine and GABA compounds in a biodegradable polymer carrier” (Warsaw Orthopedic, Inc., priority 2010, dated 2018):

Experiments:
[1] = system: Sprague Dawley rats with chronic constriction injury (CCI) of the sciatic nerve; assay: Mechanical paw withdrawal (allodynia) Von Frey threshold after chronic constriction injury of the sciatic nerve; type: in vivo; details: rat CCI model; gabapentin 90 mg/kg subcutaneous 1 hour prior to each assessment; days 8, 15, 22 post-CCI; vs vehicle (PBS); 2-factor ANOVA, p<0.001
Description: (§1) Rats were treated with a subcutaneous human equivalent dose of 885 mcg of gabapentin 1 hour prior to testing.
(§2) Eight Sprague Dawley rats were given a chronic constriction injury (CCI) of the sciatic nerve. The CCI was induced as described by Bennett and Xie (1988). Animals were anesthetized with pentobarbital (60 mg/kg). The right common sciatic nerve was exposed by blunt dissection between the femoral biceps and quadriceps muscle and freed from adherent tissue. Four loose ligatures were placed 1 mm apart using 4-0 chromic gut absorbable sutures. Four animals received a subcutaneous injection of gabapentin (90 mg/kg) 1 hour prior to each post-CCI pain assessment (BP) and four animals received vehicle (PBS) injections. Thermal hyperalgesia paw withdrawal latency response of the injured (rt) limb was measured 2 days before the CCI and on days 7, 14, and 21 post-CCI surgery. This is considered a model of neuropathic pain. FIG. 3 is a bar graph illustration showing that Von Frey withdrawal threshold is increased by gabapentin in rats with an injury to the sciatic nerve.
Mechanical paw withdrawal (allodynia) thresholds of each animal were measured the day before the CCI and on days 8, 15, and 22. FIG. 4 is a bar graph illustration showing that thermal withdrawal latency is increased by gabapentin in rats with an injury to the sciatic nerve. This is considered a model of tactile somatic pain.

[2] = system: Sprague Dawley rats with chronic constriction injury (CCI) of the sciatic nerve; assay: Thermal hyperalgesia paw withdrawal latency after chronic constriction injury of the sciatic nerve; type: in vivo; details: rat CCI model; gabapentin 90 mg/kg subcutaneous 1 hour prior to each assessment; days 7, 14, 21 post-CCI; injured (rt) limb; vs vehicle (PBS); 2-factor ANOVA, p<0.0001
Description: as §1, §2

With `NCC1(CC(=O)O)CCCCC1` [gabapentin, 2-[1-(aminomethyl)cyclohexyl]acetic acid] the “Von Frey threshold, expressed as a percent of baseline” value [1] was “significantly higher” and the “Thermal withdrawal latency, expressed as a percent of baseline” value [2] was “significantly higher”.
